# PMC10569065, “Major distinctions between the two oligopeptide permease systems of Bacillus subtilis with respect to signaling, development and evolutionary divergence” (Microbiology, 2023)
# Where no end group is shown, it is not given here.
# Experiments:
# [1] = test system: App permease (App-only strain O-;A+, AES7410, expressing RapA); assay: Co-culture PspoIIG-3×yfp early sporulation reporter, RapA strain, App-only; assay type: cell-based, Bacillus subtilis; details: maximal peptide concentration, SMM with very low glucose, 3 h
# Method: (§1) Flow cytometry was performed to quantify gene expression at the single-cell level, using a Beckman-Coulter Gallios flow-cytometer equipped with four lasers (405 nm, 488 nm co-linear with 561 nm, 638 nm). The emission filters used were as follows: BFP – 450/50, YFP – 525/40, mCherry – 620/30. Two methods were used to distinguish between co-cultured cells. Strains coding for rapP where transformed by plasmids carrying either an mCherry or mTag2-BFP genes under a constitutive promoter. For the rest of the strains, the same constructs were integrated into the bacterial genome at the lacA locus. YFP levels were measured relative to a set voltage, which was approximately set such that a value of 1 will be given to autofluorescence of strain PY79 in SMM medium.
# (§2) Cells were grown to OD600 <0.1, in SMM medium containing trace elements and glucose, then diluted by a factor of 10^6 or 10^7 into fresh SMM medium and grown for about 16 h in exponential phase. […] At each time point OD600nm was measured using a spectrophotometer and fluorescence was measured using a flow cytometry. […]
# (§3) Fig. 5. […] ON cells are determined as the cells that have expressed P spoIIG-3 ×yfp 10-fold higher than background. […] YFP levels were measured for single cells using flow cytometry 3 h after the peptide was added to co-culture of both strains, App and Opp. […]
# [2] = test system: Opp permease (Opp-only strain O+;A-, AES7413, expressing RapA); assay: Co-culture PspoIIG-3×yfp early sporulation reporter, RapA strain, Opp-only; assay type: cell-based, Bacillus subtilis; details: 10 µM peptide, SMM with very low glucose, 3 h, ON = 10-fold higher than background
# Method: as §1, §2, §3
# [3] = test system: App permease (App-only strain O-;A+, expressing RapC, RapF or RapP); assay: Co-culture PsrfA-3×yfp reporter response to added Phr peptide, App-only strain; assay type: cell-based, Bacillus subtilis; details: co-culture with Opp-only strain, SMM, 3 h after peptide addition, PhrP increase at concentrations higher than 1 µM
# Method: as §1
# (§4) Cells were grown to OD600 <0.1, in SMM medium containing trace elements and glucose, then diluted by a factor of 10^6 or 10^7 into fresh SMM medium and grown for about 16 h in exponential phase. In co-culture gene-expression experiments, each strain was grown from a single colony in SMM to OD600 <0.1 or diluted to 0.1 prior to strain mixing. The two strains were mixed at equal volumes and then diluted by a factor of 10^6 or 10^7 in fresh SMM medium. Samples were taken from cultures at several time-points. At each time point OD600nm was measured using a spectrophotometer and fluorescence was measured using a flow cytometry. […]
# [4] = biological target: T1, Opp permease (Opp-only strain O+;A-, expressing RapC, RapF or RapP) (Bacillus subtilis, UniProt P24141); assay: Co-culture PsrfA-3×yfp reporter response to added Phr peptide, Opp-only strain; assay type: cell-based
# T1 construct: full deletion mutants of the App (Opp-only; O^+;A^-) and Opp (App-only; O^-;A^+) operons; endogenous in cells; host or cells: Bacillus subtilis 3610 (plasmid-free), Opp-only strains O+;A- (AES7204, AES7202, AES5524, AES7207)
# T1 sequence (P24141 21-545): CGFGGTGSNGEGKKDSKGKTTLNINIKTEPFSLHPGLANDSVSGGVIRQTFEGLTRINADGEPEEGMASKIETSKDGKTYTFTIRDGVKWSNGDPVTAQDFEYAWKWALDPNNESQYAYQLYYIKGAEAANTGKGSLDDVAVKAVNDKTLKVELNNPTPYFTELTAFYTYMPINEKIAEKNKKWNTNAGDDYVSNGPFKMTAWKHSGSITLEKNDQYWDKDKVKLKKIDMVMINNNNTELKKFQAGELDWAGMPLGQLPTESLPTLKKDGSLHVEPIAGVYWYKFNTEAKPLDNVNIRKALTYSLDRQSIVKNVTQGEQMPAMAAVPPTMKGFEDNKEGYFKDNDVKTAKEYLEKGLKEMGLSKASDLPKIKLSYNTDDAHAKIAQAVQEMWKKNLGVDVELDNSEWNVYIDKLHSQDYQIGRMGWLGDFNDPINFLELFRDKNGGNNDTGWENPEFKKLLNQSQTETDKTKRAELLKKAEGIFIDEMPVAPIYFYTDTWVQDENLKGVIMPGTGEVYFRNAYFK
# Method: as §1, §4
# App permease = details: previous work; cited from earlier work
# Excerpt: App was also as effective as Opp in uptaking the PapR pentapeptide, but not in importing the PhrC/F/P pentapeptides. Previous work has identified several App transported peptides, including the nonapeptide […] [[2, 50]].
# [5] = biological target: T2, App permease, App^3610 allele (App-only strain O-;A+, AES7075, expressing PlcR) (Bacillus subtilis, UniProt P42061); assay: Co-culture PplcA-3×yfp reporter of PlcR receivers, App-only strain (App3610); assay type: cell-based
# T2 construct: full deletion mutants of the App (Opp-only; O^+;A^-) and Opp (App-only; O^-;A^+) operons; endogenous in cells; host or cells: Bacillus subtilis 3610 (plasmid-free), App-only strain O-;A+ (AES7075)
# T2 sequence (P42061 24-543): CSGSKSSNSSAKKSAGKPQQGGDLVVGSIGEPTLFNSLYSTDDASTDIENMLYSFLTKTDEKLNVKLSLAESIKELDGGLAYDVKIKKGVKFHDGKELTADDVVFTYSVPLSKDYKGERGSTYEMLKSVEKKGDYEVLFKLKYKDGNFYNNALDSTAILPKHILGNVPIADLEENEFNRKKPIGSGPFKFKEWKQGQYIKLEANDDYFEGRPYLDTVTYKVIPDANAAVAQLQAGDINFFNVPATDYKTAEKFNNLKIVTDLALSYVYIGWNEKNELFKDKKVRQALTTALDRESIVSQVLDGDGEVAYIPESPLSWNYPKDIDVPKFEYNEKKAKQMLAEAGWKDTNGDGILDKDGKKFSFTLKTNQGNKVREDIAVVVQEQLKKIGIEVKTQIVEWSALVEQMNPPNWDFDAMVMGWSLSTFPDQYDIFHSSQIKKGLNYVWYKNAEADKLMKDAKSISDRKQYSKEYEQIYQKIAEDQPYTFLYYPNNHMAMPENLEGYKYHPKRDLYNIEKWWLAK
# Method: as §1
# as §4, with “The two strains were mixed at equal volumes and then diluted by a factor of 10^6 or 10^7 in fresh SMM medium. Samples were taken from cultures at several time-points.” left out
# (§5) Fig. 8. […] YFP levels were measured for single cells using flow cytometry 3 h after the peptide was added. […] Biological repeats at the same concentrations were measured on different days. […]
# [6] = biological target: T3, Opp permease (Opp-only strain O+;A-, AES7207, expressing PlcR) (Bacillus subtilis, UniProt P24141); assay: Co-culture PplcA-3×yfp reporter of PlcR receivers, Opp-only strain; assay type: cell-based
# T3 construct: full deletion mutants of the App (Opp-only; O^+;A^-) and Opp (App-only; O^-;A^+) operons; endogenous in cells; host or cells: Bacillus subtilis 3610 (plasmid-free), Opp-only strains O+;A- (AES7204, AES7202, AES5524, AES7207)
# T3 sequence (P24141 21-545): as the sequence (P24141 21-545) above
# Method: as §1
# as §4, with “The two strains were mixed at equal volumes and then diluted by a factor of 10^6 or 10^7 in fresh SMM medium. Samples were taken from cultures at several time-points.” left out
# as §5
# [7] = test system: ɸ3T infection of B. subtilis 3610 plasmid-free permease variants; assay: Phage ɸ3T infection dynamics (optical density) in presence of arbitrium peptide; assay type: cell-based, Bacillus subtilis; details: ɸ3T m.o.i.=0.1 in LB
# Method: Overnight culture grown in LB of the appropriate strain was diluted by a factor of 1 : 100 into fresh containing 0.1 mM MnCl2 and 5 mM MgCl2. The strains were then grown at 37 °C with shaking at 220 r.p.m. Upon reaching an of OD600=0.3, the strains infected with free ɸ3T at m.o.i.=0.1 and supplemented with 10 µM of the synthetic peptide SAIRGA. Optical density measurements at a wavelength of 600 nm were performed in a 96-well plate using a plate reader (PerkinElmer VICTOR Nivo 622 Multimode Plate Reader).
# We wondered whether App is capable of transporting the signalling molecules of arbitrium, the second RRNPP system found in B. subtilis phages. The B. subtilis phage φ3T utilizes an arbitrium system with the small peptide SAIRGA to control the lysis-lysogeny and induction decisions [[17, 22]]. Increased signal concentration tilts the decision towards lysogeny. To further examine the impact of App and Opp on quorum-sensing-dependent activation of φ3T horizontal transfer, we utilized a plate reader to examine the phage infection dynamics by monitoring its impact on optical density during infection of the different variants in Lysogeny Broth (LB) medium.
# Fig. 4. […] Growth curves are represented as the mean optical density (dark colour) and its error (light grey) as a function of time (minutes) taken using a plate-reader. […]
substance,measurement,setting,value
"ARNQT [PhrA, synthetic PhrA signalling pentapeptide (ARNQT) of the RapA-PhrA system]","fraction of sporulating cells (ON cells, PspoIIG-3×yfp)",[1],0.2%
same,"percentage of cells with high YFP levels (ON cells, PspoIIG-3×yfp)",[2],~ 20%
ERGMT [PhrC],"YFP levels (PsrfA-3×yfp) with increasing peptide concentrations, App-only strains",[3],marginally increased
same,EC50,[4],< 10 nM
FGFG [tetrapeptide reported in previous work as transported by App],transport by App,App permease,able to transport
FLEEI [pentapeptide reported in previous work as transported by App],transport by App,App permease,able to transport
LPFEF [penta-PapR],EC50,[5],290 nM
same,EC50,[6],650 nM
QRGMI [PhrF],"YFP levels (PsrfA-3×yfp) with increasing peptide concentrations, App-only strains",[3],marginally increased
same,EC50,[4],< 10 nM
SAIRGA [synthetic arbitrium hexapeptide of B. subtilis phage φ3T],"optical density on ɸ3T infection with peptide, App-only (O-;A+)","[7]; AES6372, 10 µM peptide",marked reduction in optical density
same,"lysis on ɸ3T infection with peptide, WT (O+;A+)","[7]; WT DS2569, 10 µM peptide added at OD600=0.3, plate reader OD600",did not lyse
